The values below come from patent US20060063759A1, “Tricyclic steroid hormone nuclear receptor modulators” (priority 2002, published 2006).

Each structure is given as a SMILES string.

Test [1] has as its target T1, glucocorticoid receptor (Homo sapiens, UniProt P04150).
T1 construct: containing 50-200 ug of A549 cell extract and 1.86 nM [^3H]-dexamethasone; host or cells: A549 human lung epithelial cells (sonicated cell extract)
T1 sequence (P04150 1-777): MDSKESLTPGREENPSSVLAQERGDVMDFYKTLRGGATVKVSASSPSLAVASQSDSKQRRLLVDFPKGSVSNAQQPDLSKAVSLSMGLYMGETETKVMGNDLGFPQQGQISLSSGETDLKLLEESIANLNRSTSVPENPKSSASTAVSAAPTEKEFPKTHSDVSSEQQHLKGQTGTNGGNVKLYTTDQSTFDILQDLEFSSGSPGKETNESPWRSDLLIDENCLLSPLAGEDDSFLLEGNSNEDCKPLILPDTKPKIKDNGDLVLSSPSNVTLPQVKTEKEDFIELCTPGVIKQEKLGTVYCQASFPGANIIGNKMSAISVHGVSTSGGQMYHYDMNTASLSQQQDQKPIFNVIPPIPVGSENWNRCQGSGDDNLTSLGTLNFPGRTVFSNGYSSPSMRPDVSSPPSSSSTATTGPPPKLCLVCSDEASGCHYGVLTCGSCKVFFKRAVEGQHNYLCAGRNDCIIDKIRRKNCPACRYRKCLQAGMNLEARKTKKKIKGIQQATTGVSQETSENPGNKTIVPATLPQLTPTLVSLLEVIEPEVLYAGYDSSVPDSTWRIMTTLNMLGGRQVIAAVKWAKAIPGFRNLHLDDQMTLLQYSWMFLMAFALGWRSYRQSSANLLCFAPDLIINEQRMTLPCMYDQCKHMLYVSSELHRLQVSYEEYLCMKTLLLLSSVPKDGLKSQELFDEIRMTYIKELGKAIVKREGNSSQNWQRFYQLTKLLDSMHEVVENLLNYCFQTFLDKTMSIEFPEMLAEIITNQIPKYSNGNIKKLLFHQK
In words: Glucocorticoid Receptor Binding Assay ([3H]-dexamethasone, A549 cell extract). Conditions: [3H]-dexamethasone binding, read-out: GR Ki. In outline: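 Displacement of [3H]-dexamethasone (1.86 nM) from glucocorticoid receptor in sonicated A549 lung epithelial cell extracts, 16 h at 4 °C, pH 7.2 molybdate-containing buffer. Bound radioactivity was scintillation-counted after charcoal/dextran stripping of free ligand.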

Test [2] addresses T2, human MR (Homo sapiens, UniProt P08235).
T2 construct: The full length human MR gene is cloned from a human kidney or human brain cDNA library; His tag from the pAcHLT vector (own knowledge); made in house; host or cells: Sf9 insect cells (baculovirus, pAcHLT transfer vector)
T2 sequence (P08235 1-984): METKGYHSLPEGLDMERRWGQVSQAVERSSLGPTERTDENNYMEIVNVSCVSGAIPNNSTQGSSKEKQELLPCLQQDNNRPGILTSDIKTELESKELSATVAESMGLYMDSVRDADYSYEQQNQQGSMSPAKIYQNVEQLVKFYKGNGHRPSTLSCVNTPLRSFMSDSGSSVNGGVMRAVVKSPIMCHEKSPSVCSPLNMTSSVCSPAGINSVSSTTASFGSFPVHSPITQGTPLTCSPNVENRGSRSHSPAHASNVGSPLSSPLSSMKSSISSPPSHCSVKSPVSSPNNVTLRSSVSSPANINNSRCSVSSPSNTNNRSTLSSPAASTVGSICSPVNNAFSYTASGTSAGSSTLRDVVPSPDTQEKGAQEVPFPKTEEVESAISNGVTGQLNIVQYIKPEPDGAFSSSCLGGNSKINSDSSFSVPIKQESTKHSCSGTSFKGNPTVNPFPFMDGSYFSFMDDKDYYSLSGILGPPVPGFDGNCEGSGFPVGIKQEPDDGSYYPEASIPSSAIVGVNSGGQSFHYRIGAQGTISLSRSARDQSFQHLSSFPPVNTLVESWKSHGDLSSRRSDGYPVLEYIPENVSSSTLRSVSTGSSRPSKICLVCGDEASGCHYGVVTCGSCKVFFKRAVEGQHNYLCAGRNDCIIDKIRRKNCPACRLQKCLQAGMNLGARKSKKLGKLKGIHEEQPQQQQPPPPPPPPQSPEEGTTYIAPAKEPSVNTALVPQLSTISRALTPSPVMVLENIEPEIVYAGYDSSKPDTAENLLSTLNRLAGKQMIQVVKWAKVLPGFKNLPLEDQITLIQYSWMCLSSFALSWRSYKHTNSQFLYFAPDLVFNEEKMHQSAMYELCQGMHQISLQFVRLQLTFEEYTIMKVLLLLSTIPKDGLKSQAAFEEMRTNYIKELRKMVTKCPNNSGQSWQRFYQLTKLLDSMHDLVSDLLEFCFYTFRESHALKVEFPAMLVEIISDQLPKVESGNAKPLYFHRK
In words: Mineralocorticoid Receptor Binding Assay ([3H]-aldosterone). Conditions: [3H]-aldosterone binding, human MR expressed in Sf9 cells; read-out: MR Ki. An outline of the steps:
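Receptor source: freeze-thaw lysate of baculovirus-infected Sf9 cells carrying full-length human MR, 20-25 μg protein. Incubation ~16 h at 4 °C with shaking, pH 7.5 buffer containing 30 mM sodium molybdate and 10% glycerol.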

A word on the Ki: it is a measure of affinity in units of concentration, obtained from inhibition or displacement. Take `Cc1ccc(NS(C)(=O)=O)cc1C=C1c2ccccc2CCc2ccccc21` [Example 47, N-[3-(10,11-Dihydro-dibenzo[a,d]cyclohepten-5-ylidenemethyl)-4-methyl-phenyl]-methanesulfonamide]: the values for the Ki in test [1] and in test [2] were less than 1000 nM and less than 500 nM, respectively.
The corresponding values for `O=c1[nH]c2ccc(/C=C3/c4ccccc4CCc4cc(C(F)F)ccc43)cc2[nH]1` [Example 452] are less than 1000 nM and less than 500 nM.
The corresponding values for `CS(=O)(=O)Nc1cccc(/C=C2\c3ccccc3COc3ccccc32)c1` [Example 267, N-[3-(6H-Dibenzo[b,e]oxepine-11-ylidenemethyl)-phenyl]-methanesulfonamide] are less than 500 nM and less than 500 nM.
Taken in the same sequence, the figures for `Oc1ccc(C=C2c3ccccc3CCc3cc(O)ccc32)cc1` (mixture of isomers) [Example 169, 5-(4-Hydroxy-benzylidene)-10,11-dihydro-5H-dibenzo[a,d]cyclohepten-2-ol] were less than 500 nM and less than 500 nM.
As for `O=c1[nH]c2ccc(/C=C3\c4ccccc4COc4cc(C(F)(F)F)ccc43)cc2[nH]1` [Example 643], the results for the Ki in test [1] and in test [2] were less than 10000 nM and less than 500 nM, respectively.
As for `O=c1[nH]c2ccc(C=C3c4ccccc4COc4ccccc43)cc2[nH]1` [Example 626], the Ki in test [1] was less than 10000 nM; in test [2], less than 500 nM.
Taken in the same sequence, the figures for `Nc1cccc(C=C2c3ccccc3CCc3ccccc32)n1` [Example 230, 6-(10,11-Dihydro-dibenzo[a,d]cyclohepten-5-ylidenemethyl)-pyridin-2-ylamine] were less than 10000 nM and less than 1000 nM.
The corresponding values for `CS(=O)(=O)Nc1cccc(/C=C2/c3ccccc3OCc3c(F)cccc32)c1` [Example 731] are less than 500 nM and less than 500 nM.
The corresponding values for `CS(=O)(=O)NCc1ccc(/C=C2\c3ccccc3CCc3cc(Cl)ccc32)cc1` [Example 346] are less than 10000 nM and less than 500 nM.
As for `O=c1[nH]c2ccc(/C=C3/c4ccc(F)cc4CCc4ncsc43)cc2[nH]1` [Example 566], the Ki in test [1] is less than 10000 nM; in test [2], less than 500 nM.
The corresponding values for `CS(=O)(=O)Nc1cccc(/C=C2/c3ccccc3CCc3sccc32)c1` [Example 476] are less than 500 nM and less than 500 nM.
The corresponding values for `C/C(=C1/c2ccc(C)cc2CCc2cc(F)ccc21)c1cccc(NS(C)(=O)=O)c1` [Example 832] are less than 500 nM and less than 500 nM.
The corresponding values for `CC(=O)Nc1ccc2c(c1)CCc1ccccc1C2=Cc1cccc(NS(C)(=O)=O)c1` [Example 405] are less than 500 nM and less than 500 nM.
As to `Cc1ccc2c(c1)CCc1cc(F)ccc1C2=Cc1cccc(NS(C)(=O)=O)c1` [Example 420], the Ki in test [1] and in test [2] was less than 500 nM each time.
For `CS(=O)(=O)Nc1cccc(/C=C2\c3ccccc3CCc3cc(N)ccc32)c1` [Example 407], the Ki in test [1] and in test [2] was less than 500 nM each time.
Take `CS(=O)(=O)Nc1cccc(/C=C2\c3ccccc3COc3c(F)cccc32)c1` [Example 670]: the Ki in test [1] and in test [2] was less than 500 nM each time.
For `C/C(=C1/c2ccc(F)cc2COc2cc(F)ccc21)c1cccc(NS(C)(=O)=O)c1` [Example 809], the Ki in test [1] and in test [2] was less than 500 nM each time.
As to `Cc1ccc2c(c1)C(=Cc1cccc(NS(C)(=O)=O)c1)c1ccccc1CC2` [Example 301], the Ki in test [1] and in test [2] was less than 500 nM throughout.
Turning to `CS(=O)(=O)NCc1ccc(/C=C2/c3ccccc3CCc3cc(Cl)ccc32)cc1` [Example 345], the Ki in test [1] was less than 10000 nM; in test [2], less than 500 nM.
Taken in the same sequence, the figures for `Cc1ccccc1C=C1c2ccccc2CCc2cc(Cl)ccc21` [Example 175, 2-Chloro-5-(2-methyl-benzylidene)-10,11-dihydro-5H-dibenzo[a,d]cycloheptene] were less than 10000 nM and less than 500 nM.
